From ChEMBL document CHEMBL5653615 (J Biol Chem, 2013) come the findings set out here.

Molecules are shown by their SMILES.

In assay [1] the target is T1, Cytoplasmic tyrosine-protein kinase BMX (Homo sapiens) (UniProt P51813).
T1 sequence (whole entry): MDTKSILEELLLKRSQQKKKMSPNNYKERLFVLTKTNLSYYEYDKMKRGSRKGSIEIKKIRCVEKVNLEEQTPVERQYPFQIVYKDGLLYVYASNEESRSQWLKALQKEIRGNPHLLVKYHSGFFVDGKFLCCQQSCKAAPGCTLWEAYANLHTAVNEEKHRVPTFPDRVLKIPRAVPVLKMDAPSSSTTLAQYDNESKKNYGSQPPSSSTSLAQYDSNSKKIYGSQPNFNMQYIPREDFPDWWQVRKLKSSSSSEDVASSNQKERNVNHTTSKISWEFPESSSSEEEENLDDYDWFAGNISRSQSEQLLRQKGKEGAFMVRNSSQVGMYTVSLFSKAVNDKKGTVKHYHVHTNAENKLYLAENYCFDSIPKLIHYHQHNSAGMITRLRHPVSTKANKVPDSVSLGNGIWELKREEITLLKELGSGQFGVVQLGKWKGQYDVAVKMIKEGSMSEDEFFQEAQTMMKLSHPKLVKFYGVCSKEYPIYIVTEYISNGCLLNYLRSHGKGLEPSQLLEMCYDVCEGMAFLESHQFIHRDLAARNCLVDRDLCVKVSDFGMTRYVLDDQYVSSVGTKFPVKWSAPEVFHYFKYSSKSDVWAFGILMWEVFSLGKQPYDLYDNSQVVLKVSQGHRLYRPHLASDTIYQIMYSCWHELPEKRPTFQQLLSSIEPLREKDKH
Kind of assay: Inhibition of human BMX at 18.6 nM by HotSpot assay relative to control.

For assay [2], the target named is Serine/threonine-protein kinase B-raf (Homo sapiens) (UniProt P15056). Briefly: Inhibition of human BRAF at 18.6 nM by HotSpot assay relative to control.
Assay [3] deals with Ephrin type-A receptor 7 (Homo sapiens) (UniProt Q15375). Kind of assay: Inhibition of human EPHA7 at 18.6 nM by HotSpot assay relative to control.
Sequence of Ephrin type-A receptor 7 (Homo sapiens) (Q15375 28-998 limits assumed): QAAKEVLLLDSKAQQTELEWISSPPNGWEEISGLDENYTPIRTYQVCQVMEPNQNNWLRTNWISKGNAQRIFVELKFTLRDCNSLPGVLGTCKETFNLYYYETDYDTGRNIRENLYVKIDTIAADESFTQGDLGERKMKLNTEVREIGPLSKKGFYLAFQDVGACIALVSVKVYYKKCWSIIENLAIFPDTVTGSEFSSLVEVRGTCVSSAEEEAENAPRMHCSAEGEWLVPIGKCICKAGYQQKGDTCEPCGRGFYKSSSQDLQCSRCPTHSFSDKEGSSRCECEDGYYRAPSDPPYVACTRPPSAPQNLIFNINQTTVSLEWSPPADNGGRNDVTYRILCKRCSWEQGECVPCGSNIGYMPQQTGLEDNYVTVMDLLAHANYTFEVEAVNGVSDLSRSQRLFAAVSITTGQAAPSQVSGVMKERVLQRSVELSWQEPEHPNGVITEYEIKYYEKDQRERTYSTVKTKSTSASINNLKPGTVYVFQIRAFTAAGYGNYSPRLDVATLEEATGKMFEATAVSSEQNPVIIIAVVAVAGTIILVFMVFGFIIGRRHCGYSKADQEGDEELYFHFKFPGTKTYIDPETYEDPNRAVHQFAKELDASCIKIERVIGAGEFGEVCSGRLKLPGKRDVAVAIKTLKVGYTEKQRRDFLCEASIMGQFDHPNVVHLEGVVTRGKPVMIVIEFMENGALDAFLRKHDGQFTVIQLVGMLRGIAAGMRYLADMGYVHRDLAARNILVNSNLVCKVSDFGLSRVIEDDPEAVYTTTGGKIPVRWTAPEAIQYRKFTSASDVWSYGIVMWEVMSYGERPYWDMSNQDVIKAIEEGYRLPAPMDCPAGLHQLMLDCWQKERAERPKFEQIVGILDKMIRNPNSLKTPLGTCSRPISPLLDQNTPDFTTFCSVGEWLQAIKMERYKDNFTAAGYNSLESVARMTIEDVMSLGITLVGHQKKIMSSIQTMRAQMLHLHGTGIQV
Assay [4] addresses G protein-coupled receptor kinase 5 (Homo sapiens) (UniProt P34947). Kind of assay: Inhibition of human GRK5 at 18.6 nM by HotSpot assay relative to control.
Assay [5] addresses T2, Dual specificity mitogen-activated protein kinase kinase 6 (Homo sapiens) (UniProt P52564).
T2 sequence (whole entry): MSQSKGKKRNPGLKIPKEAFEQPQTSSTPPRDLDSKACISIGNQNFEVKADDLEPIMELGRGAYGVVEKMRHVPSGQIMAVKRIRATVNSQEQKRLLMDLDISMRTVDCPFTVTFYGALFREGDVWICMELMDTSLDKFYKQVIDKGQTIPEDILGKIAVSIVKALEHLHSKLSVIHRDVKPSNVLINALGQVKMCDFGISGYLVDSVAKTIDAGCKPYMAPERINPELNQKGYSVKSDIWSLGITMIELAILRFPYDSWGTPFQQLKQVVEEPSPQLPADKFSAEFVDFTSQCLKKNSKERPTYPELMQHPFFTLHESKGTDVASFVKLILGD
Kind of assay: Inhibition of human MKK6 at 18.6 nM by HotSpot assay relative to control.

Assay [6] concerns the target PAS domain-containing serine/threonine-protein kinase (Homo sapiens) (UniProt Q96RG2). Kind of assay: Inhibition of human PASK at 18.6 nM by HotSpot assay relative to control.
For assay [7], the target named is Receptor-interacting serine/threonine-protein kinase 2 (Homo sapiens) (UniProt O43353). Briefly: Inhibition of human RIPK2 at 18.6 nM by HotSpot assay relative to control.
The target of assay [8] is Serine/threonine-protein kinase SIK2 (Homo sapiens) (UniProt Q9H0K1). Briefly: Inhibition of human SIK2 at 18.6 nM by HotSpot assay relative to control.
Assay [9] concerns the target CDK1/Cyclin A (Homo sapiens) (UniProt P06493+P20248). Kind of assay: Inhibition of human CDK1/cyclin A at 1.82 nM by HotSpot assay relative to control. It counts as protein-complex assay.
The target in assay [10] is Tyrosine-protein kinase Fes/Fps (Homo sapiens) (UniProt P07332). Kind of assay: Inhibition of human FES at 1.82 nM by HotSpot assay relative to control.
Sequence of Tyrosine-protein kinase Fes/Fps (Homo sapiens) (P07332 whole entry): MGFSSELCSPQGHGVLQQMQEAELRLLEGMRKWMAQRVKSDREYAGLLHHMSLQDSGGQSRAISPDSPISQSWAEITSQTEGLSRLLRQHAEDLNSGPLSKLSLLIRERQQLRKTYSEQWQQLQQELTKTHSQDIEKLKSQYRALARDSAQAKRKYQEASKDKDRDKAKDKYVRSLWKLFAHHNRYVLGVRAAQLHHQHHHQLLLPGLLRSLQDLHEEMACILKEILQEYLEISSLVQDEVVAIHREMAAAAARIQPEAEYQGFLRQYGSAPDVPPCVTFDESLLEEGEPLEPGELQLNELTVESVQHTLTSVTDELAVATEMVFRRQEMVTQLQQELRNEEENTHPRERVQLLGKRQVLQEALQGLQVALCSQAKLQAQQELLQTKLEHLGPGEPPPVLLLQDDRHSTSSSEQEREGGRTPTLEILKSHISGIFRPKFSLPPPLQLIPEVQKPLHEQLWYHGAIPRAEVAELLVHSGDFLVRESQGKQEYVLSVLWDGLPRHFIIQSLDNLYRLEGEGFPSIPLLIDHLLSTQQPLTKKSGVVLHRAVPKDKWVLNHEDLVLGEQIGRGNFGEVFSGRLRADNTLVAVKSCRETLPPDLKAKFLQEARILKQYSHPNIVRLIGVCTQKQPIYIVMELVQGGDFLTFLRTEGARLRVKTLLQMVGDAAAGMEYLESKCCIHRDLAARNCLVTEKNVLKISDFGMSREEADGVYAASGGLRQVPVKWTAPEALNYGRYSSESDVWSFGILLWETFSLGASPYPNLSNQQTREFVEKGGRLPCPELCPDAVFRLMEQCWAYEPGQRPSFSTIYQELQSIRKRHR
The target of assay [11] is Tyrosine-protein kinase Lyn (Homo sapiens) (UniProt P07948). Briefly: Inhibition of human LYN B at 1.82 nM by HotSpot assay relative to control.
Sequence of Tyrosine-protein kinase Lyn (Homo sapiens) (P07948 2-512 limits assumed): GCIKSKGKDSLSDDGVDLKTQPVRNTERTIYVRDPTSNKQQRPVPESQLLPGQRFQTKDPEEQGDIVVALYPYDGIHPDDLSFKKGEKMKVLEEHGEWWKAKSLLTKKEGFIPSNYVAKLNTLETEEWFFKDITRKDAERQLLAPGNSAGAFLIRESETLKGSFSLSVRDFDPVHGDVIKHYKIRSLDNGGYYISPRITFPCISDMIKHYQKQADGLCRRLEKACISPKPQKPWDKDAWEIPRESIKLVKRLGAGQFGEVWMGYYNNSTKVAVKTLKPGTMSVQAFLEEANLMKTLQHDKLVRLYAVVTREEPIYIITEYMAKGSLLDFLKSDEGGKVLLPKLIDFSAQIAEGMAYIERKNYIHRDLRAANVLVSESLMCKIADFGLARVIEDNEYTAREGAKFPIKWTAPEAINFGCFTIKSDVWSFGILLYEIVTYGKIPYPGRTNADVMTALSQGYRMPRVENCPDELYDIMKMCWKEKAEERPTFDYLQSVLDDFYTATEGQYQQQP
Assay [12] concerns the target T3, Serine/threonine-protein kinase 4 (Homo sapiens) (UniProt Q13043).
T3 sequence (whole entry): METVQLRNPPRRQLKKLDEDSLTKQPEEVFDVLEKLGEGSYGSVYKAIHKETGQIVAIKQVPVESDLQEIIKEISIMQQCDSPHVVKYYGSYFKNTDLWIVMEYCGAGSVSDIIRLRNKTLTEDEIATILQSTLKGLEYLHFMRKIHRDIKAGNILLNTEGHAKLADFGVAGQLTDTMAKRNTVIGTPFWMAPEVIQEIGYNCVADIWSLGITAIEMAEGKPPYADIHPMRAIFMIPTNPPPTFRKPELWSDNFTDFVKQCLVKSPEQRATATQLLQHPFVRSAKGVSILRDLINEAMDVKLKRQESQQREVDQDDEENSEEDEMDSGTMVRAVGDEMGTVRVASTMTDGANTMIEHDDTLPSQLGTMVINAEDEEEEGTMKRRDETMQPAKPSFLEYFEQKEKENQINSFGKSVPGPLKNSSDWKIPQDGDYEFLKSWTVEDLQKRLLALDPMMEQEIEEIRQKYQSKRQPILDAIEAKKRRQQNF
Kind of assay: Inhibition of human STK4 at 1.82 nM by HotSpot assay relative to control.

Assay [13] has as its target T4, Lymphokine-activated killer T-cell-originated protein kinase (Homo sapiens) (UniProt Q96KB5).
T4 sequence (whole entry): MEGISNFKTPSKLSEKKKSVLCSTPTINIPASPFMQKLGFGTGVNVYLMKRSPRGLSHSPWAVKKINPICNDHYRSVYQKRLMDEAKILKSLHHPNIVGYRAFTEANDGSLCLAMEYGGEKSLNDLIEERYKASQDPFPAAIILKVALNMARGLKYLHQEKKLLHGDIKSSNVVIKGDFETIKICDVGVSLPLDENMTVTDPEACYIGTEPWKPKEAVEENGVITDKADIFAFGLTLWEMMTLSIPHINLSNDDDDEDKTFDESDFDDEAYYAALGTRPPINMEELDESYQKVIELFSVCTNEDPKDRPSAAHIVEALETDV
Kind of assay: Inhibition of human TOPK at 1.82 nM by HotSpot assay relative to control.

The target of assay [14] is Dual specificity protein kinase CLK4 (Homo sapiens) (UniProt Q9HAZ1). Conditions: dose 1.82 nM.
Sequence of Dual specificity protein kinase CLK4 (Homo sapiens) (Q9HAZ1 whole entry, looked up): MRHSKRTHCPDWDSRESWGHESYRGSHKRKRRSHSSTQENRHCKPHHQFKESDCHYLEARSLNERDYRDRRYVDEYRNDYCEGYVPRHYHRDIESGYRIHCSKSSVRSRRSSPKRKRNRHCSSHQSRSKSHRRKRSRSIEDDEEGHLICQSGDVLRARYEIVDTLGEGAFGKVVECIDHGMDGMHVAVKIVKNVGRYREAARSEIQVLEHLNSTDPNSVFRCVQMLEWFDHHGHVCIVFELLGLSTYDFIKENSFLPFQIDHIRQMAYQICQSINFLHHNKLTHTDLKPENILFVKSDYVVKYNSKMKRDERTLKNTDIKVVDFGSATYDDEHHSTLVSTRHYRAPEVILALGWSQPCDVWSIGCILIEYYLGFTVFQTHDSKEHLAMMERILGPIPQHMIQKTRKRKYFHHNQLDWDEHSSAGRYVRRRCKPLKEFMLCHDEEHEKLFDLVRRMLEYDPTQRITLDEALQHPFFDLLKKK
Description: Inhibition of human CLK4 at 1.82 nM by HotSpot assay relative to control

Sequence of PAS domain-containing serine/threonine-protein kinase (Homo sapiens) (Q96RG2 whole entry, the tested form may be a part): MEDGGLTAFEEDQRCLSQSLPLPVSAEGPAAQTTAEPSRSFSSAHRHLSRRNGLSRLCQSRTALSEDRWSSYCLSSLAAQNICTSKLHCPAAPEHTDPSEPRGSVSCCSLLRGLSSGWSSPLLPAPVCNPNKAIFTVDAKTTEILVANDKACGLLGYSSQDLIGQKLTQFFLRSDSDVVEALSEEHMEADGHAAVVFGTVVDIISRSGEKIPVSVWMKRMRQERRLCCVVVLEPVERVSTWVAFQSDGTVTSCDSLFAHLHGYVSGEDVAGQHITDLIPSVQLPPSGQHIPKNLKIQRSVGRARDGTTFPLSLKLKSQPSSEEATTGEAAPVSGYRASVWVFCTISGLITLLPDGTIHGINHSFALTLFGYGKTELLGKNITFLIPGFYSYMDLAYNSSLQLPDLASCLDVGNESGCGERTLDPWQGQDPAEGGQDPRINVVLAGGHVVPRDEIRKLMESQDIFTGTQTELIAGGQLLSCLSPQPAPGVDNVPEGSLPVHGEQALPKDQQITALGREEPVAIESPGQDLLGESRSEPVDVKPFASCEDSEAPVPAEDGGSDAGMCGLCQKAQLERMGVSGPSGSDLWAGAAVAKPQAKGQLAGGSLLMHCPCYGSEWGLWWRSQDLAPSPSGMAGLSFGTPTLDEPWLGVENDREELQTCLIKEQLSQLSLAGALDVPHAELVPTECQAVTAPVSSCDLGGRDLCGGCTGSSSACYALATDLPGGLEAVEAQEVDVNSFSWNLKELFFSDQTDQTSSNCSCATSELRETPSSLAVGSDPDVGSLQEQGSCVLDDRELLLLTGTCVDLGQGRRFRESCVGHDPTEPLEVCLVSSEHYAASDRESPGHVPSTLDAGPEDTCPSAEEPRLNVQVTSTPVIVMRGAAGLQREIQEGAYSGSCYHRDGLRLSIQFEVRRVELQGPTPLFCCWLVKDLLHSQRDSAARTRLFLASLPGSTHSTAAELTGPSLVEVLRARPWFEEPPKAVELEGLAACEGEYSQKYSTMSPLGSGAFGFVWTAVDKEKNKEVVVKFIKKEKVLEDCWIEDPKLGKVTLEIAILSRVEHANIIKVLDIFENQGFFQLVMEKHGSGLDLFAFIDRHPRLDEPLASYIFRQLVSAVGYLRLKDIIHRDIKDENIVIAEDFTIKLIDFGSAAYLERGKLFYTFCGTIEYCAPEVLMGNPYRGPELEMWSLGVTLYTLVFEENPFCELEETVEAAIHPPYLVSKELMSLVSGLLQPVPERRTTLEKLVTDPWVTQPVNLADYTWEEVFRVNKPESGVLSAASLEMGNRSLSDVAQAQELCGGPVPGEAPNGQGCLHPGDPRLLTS
Sequence of G protein-coupled receptor kinase 5 (Homo sapiens) (P34947 whole entry, looked up): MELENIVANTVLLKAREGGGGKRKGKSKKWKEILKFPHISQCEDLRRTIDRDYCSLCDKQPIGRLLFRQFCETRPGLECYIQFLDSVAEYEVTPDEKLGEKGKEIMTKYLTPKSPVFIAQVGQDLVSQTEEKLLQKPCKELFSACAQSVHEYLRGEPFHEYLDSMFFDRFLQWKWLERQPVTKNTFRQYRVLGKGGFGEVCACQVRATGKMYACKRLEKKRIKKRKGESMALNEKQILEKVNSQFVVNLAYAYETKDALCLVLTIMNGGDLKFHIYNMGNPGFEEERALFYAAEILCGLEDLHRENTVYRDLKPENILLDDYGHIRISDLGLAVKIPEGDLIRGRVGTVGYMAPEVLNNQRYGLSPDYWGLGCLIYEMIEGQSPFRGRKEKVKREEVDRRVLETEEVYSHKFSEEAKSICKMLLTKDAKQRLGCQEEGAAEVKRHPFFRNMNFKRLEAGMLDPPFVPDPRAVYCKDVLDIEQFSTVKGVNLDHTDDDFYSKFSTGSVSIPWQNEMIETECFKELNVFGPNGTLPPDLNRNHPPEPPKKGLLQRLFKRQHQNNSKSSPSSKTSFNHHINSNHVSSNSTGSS

As for `C[C@]1(O)C[C@@H](c2nc(-c3ccc4ccc(-c5ccccc5)nc4c3)c3c(N)nccn32)C1`, the inhibition is -2.96% in assay [1]; 7.79% in assay [2]; 2.17% in [3]; -6.77% in assay [4]; 1.97% in assay [5]; -4.72% in assay [6]. In addition, the inhibition in assay [7] is 12.1%; in assay [8], -8.94%.
For the molecule `C[C@@]1(C(=O)Nc2ccc(F)nc2)CCCN1c1nc(Nc2cc(C3CC3)n[nH]2)c2cccn2n1`, the inhibition in [9] was -1.79%; in assay [10], 5.24%; in assay [11], 2.74%; in assay [12], 9.85%; in assay [13] it was 8.44%; in assay [14], -10%.

Usually inhibition stands for the drop in the measured response relative to a control, in per cent.
